# Measurements: US6596707B2, “Monovalent saccharides and uses thereof” (priority 2001, dated 2003)
# What was measured:
# [1] = biological target: Shiga-like toxin II (SLT II) (Escherichia phage 933W, UniProt P09386); format: cell-based, E. coli O157:H7
# [2] = biological target: Shiga-like toxin I (SLT I) (Bacteriophage H30, UniProt P69178)
# [3] = Pharmacokinetics of globotriose in mice after IV or oral administration
# [4] = Toxicity of globotriose administered to mice (previous pharmacokinetic studies)
# Shiga-like toxin I (SLT I), sequence (P69178 whole entry, looked up): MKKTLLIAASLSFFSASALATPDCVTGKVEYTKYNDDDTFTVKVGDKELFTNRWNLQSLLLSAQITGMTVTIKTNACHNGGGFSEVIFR
# Shiga-like toxin II (SLT II), sequence (P09386 whole entry, looked up): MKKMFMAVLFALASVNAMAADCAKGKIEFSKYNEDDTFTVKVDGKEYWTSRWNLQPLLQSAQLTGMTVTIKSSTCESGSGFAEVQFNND
compound,measurement,setting,value
"OC[C@H]1O[C@H](O[C@@H]2[C@H](O)[C@@H](O)[C@H](O[C@H]3[C@H](O)[C@@H](O)C(O)O[C@@H]3CO)O[C@@H]2CO)[C@H](O)[C@@H](O)[C@H]1O (stereo partly drawn) [globotriose, galactose α1,4 galactose β1,4 glucose]",inhibition of cell death from SLT II,[1],8%
same,inhibition of cell death from SLT I,[2],52%
same,"reduction of cytotoxicity (SLT I), toxin pre-attached",[2],33%
same,clearance kinetics,[3]; IV administered,bi-exponential clearance kinetics
same,time over which excreted through the kidneys,[3]; IV administered,> 24 h
same,bioavailable (oral dose crossed into circulation),[3]; orally administered,approximately 10%
same,"excreted in the urine, time post-dose",[3]; orally administered,up to 48 hours
same,fate of the majority of orally administered dose,[3]; orally administered,excreted into the feces unmetabolized
same,kinetics,[3]; orally administered,bi-exponential kinetics
same,toxic effects after intravenous administration,[4]; intravenously 333 mg/kg,no toxic effects
same,toxic effects after oral administration,[4]; orally 3333 mg/kg,no toxic effects
